Results reported in article PMC8035174, “The Pseudomonas aeruginosa substrate-binding protein Ttg2D functions as a general glycerophospholipid transporter across the periplasm” (Communications Biology, 2021).
≈ marks a conversion by molar mass, not a printed value.

What follows are compounds tested on T1, Pseudomonas aeruginosa PAO1 (assay: microbe, parasite or virus in culture). Settings: PAO1, 20 h, read-out: MIC PAO1.
T1 construct: PAO1
Parameters: broth microdilution MIC in cation-adjusted Mueller-Hinton broth, visual growth or resazurin
Experimental: Analysis of antimicrobial susceptibilities. […] The BMD method was performed on cation adjusted MH broth (CAMHB) as recommended 41, 42 . Bacteria were first grown overnight in CAMHB using CLSI-recommended incubation conditions and the antibiotics were serially diluted twofold across the 96 well plates. After that, 100 µl of a bacterial suspension diluted to 5x10^5 CFU/ml in CAMHB was added to the wells containing the antibiotic dilutions. The 96-well plates were incubated for 20 h at 37°C before developing by visual inspection or with the resazurin dye 43 . MIC was defined as the lowest concentration of the antibiotic (in μg/ml) that prevented visual growth. As the LESB58 isolate is considered a slower growing strain compared to laboratory strain PAO1 44, incubation for bacterial growth was extended to 48 h instead of 24 h for some protocols. […] For Etest a 0.5 McFarland suspension was used to create a confluent lawn of microbial growth in 150-mm Mueller-Hinton (MH) agar plates. The MIC values were determined according to the Etest reading guide after 18 h incubation at 37°C. MICs were determined as the concentration at which the zone of inhibition intersected the Etest strip.

Going from `C[C@@H](O)[C@H]1C(=O)N2C(C(=O)O)=C(S[C@@H]3CN[C@H](C(=O)N(C)C)C3)[C@H](C)[C@H]12` [Meropenem] to `C[C@@H](O)[C@H]1C(=O)N2C(C(=O)O)=C(SCCNC=N)C[C@H]12` [Imipenem], the MIC rises from 1 µg/mL (≈ 2.61 µM) to 4 µg/mL (≈ 13.4 µM) (4-fold).

Compared with `CC(C)(O/N=C(\C(=O)N[C@@H]1C(=O)N2C(C(=O)[O-])=C(C[n+]3ccccc3)CS[C@H]12)c1csc(N)n1)C(=O)O` [Ceftazidime], `CC1(C)S[C@@H]2[C@H](NC(=O)[C@H](C(=O)O)c3ccsc3)C(=O)N2[C@H]1C(=O)O` [Ticarcillin] is 16-fold higher in MIC: 1 µg/mL (≈ 1.83 µM) for the first, 16 µg/mL (≈ 41.6 µM) for the second.

Compared with `CN[C@@H]1[C@H](O[C@H]2[C@H](O[C@H]3[C@H](O)[C@@H](O)[C@H](N=C(N)N)[C@@H](O)[C@@H]3N=C(N)N)O[C@@H](C)[C@]2(O)C=O)O[C@@H](CO)[C@H](O)[C@H]1O` [Streptomycin], `NCC[C@H](O)C(=O)N[C@@H]1C[C@H](N)[C@@H](O[C@H]2O[C@H](CN)[C@@H](O)[C@H](O)[C@H]2O)[C@H](O)[C@H]1O[C@H]1O[C@H](CO)[C@@H](O)[C@H](N)[C@H]1O` [Amikacin] is 4-fold lower in MIC: 8 µg/mL (≈ 13.8 µM) for the first, 2 µg/mL (≈ 3.42 µM) for the second.

Compared with `C[C@H]1COc2c(N3CCN(C)CC3)c(F)cc3c(=O)c(C(=O)O)cn1c23` [Levofloxacin], `CC1COc2c(N3CCN(C)CC3)c(F)cc3c(=O)c(C(=O)O)cn1c23` (stereo not shown) [Ofloxacin] is 2-fold higher in MIC: 4 µg/mL (≈ 11.1 µM) for the first, 8 µg/mL (≈ 22.1 µM) for the second.

Compared with `O=C(N[C@H](CO)[C@H](O)c1ccc([N+](=O)[O-])cc1)C(Cl)Cl` [Chloramphenicol], `CCN1CCN(C(=O)N[C@@H](C(=O)N[C@@H]2C(=O)N3[C@@H]2SC(C)(C)[C@@H]3C(=O)O)c2ccccc2)C(=O)C1=O` [Piperacillin] is lower in MIC: greater than 256 µg/mL for the first, 2 µg/mL (≈ 3.86 µM) for the second.

`CN(C)c1cc(NC(=O)CNC(C)(C)C)c(O)c2c1C[C@H]1C[C@H]3[C@H](N(C)C)C(O)=C(C(N)=O)C(=O)[C@@]3(O)C(O)=C1C2=O` [Tigecycline] and `CN(C)c1ccc(O)c2c1C[C@H]1C[C@H]3[C@H](N(C)C)C(O)=C(C(N)=O)C(=O)[C@@]3(O)C(O)=C1C2=O` [Minocycline] are the same in MIC: 32 µg/mL (≈ 54.6 µM) for the first, 32 µg/mL (≈ 69.9 µM) for the second.

Compound `CCn1cc(C(=O)O)c(=O)c2cc(F)c(N3CCNCC3)cc21` [Norfloxacin] has an MIC of 4 µg/mL (≈ 12.5 µM).
